Experiment [1] concerns the target Acetylcholinesterase (Homo sapiens, UniProt P22303). The experiment in a line: Inhibition of human recombinant AChE by Ellman's method.
The target of experiment [2] is Cholinesterase (Homo sapiens, UniProt P06276). The experiment in a line: Inhibition of human serum BChE by Ellman's method. (Ellman's reagent forms a yellow product with free thiols.)

Each structure is given as a SMILES string. Some results are limits rather than exact numbers.

Chain of Acetylcholinesterase (P22303 whole entry): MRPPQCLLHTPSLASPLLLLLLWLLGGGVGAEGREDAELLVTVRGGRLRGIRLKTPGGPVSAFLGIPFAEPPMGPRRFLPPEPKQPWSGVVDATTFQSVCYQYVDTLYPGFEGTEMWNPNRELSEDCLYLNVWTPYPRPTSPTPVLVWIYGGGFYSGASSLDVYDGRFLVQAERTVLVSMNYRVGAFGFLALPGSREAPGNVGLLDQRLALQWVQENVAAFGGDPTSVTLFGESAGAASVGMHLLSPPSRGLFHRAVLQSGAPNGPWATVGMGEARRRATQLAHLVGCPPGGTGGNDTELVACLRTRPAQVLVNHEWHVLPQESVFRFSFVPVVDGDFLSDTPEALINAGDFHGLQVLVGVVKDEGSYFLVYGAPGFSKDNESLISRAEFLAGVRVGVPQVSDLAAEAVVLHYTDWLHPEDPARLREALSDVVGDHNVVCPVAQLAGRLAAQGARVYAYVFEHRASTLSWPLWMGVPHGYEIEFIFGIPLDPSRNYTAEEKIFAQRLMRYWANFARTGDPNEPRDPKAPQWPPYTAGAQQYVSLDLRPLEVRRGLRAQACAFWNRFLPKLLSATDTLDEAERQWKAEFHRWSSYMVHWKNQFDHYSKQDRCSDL
Chain of Cholinesterase (P06276 whole entry): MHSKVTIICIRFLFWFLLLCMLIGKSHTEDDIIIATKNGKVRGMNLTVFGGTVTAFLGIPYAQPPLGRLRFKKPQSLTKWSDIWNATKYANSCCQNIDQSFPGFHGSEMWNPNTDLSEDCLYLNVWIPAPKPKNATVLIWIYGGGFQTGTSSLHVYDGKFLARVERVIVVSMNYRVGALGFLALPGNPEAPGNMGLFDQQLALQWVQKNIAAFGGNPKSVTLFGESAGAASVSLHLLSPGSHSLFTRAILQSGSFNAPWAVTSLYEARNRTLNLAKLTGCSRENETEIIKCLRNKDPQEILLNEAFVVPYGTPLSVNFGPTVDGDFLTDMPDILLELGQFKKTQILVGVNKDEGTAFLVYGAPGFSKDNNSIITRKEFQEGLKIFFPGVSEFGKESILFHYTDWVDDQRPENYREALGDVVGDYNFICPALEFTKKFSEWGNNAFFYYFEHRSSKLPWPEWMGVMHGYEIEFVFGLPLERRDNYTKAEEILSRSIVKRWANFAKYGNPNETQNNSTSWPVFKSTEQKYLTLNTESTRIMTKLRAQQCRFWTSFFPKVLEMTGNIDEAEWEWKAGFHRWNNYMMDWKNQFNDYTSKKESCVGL

On to `COc1ccc(C(=O)c2ccc(CN(C)Cc3cccc(C)c3)cc2)cc1OC`, for which the results for the IC50 in experiment [1] and in experiment [2] were 1.65 µM and 125 µM, respectively.

Consider `COc1ccc(C(=O)c2ccc(CN3CCc4ccccc4C3)cc2)cc1OC`, for which, in experiment [1], the IC50 (in general, the midpoint of a concentration-inhibition curve) was 54 µM.

With `COc1ccc(C(=O)c2ccc(/C=C/CN(C)Cc3ccccc3)cc2)cc1OC`, the IC50 in experiment [1] stood at 2.1 µM; in experiment [2], 44 µM.

Regarding `C#CCN(C)Cc1ccc(C(=O)c2ccc(OC)c(OC)c2)cc1`, in experiment [1], the IC50 amounted to 27.2 µM.

For the compound `COc1ccccc1CN(C)Cc1ccc(C(=O)c2ccc(OC)c(OC)c2)cc1`, the IC50 in experiment [1] was 3.71 µM; in experiment [2], 16.2 µM.

Regarding `COc1ccc(C(=O)c2ccc(CN(CCN(C)C)Cc3ccccc3)cc2)cc1OC`, the IC50 in experiment [1] amounted to 8.64 µM; in experiment [2], 33.2 µM.

For the compound `COc1ccc(C(=O)c2ccc(CN(C)Cc3ccccc3)cc2)cc1F`, the IC50 in experiment [1] is 1.57 µM; in experiment [2] it was above 100 µM.

Take `CN(Cc1ccccc1)Cc1ccc(C(=O)c2ccc3ccccc3c2)cc1`: the IC50 in experiment [1] stood at 19.6 µM.

`COc1ccc(C(=O)c2ccc(CN3CCOCC3)cc2)cc1OC`: the IC50 in experiment [1] was determined as 345 µM.

Take `COc1ccc(C(=O)c2ccc(CN(CCO)Cc3ccccc3)cc2)cc1OC`: the IC50 in experiment [1] worked out at 1.41 µM; in experiment [2] it was 172 µM.

With `CCN(Cc1ccccc1)Cc1ccc(C(=O)c2ccc(OC)c(OC)c2)cc1`, the values for the IC50 in experiment [1] and in experiment [2] were 0.57 µM and 71.5 µM, respectively.

`COc1ccc(C(=O)c2ccc(CN(C)CCN(C)C)cc2)cc1OC`: the IC50 was found to be 2.37 µM in experiment [1] and 88.8 µM in experiment [2].

Turning to `COc1ccc(C(=O)c2ccc(CN(C)Cc3ccccc3)cc2)cc1OC`, the IC50 in experiment [1] was determined as 0.46 µM; in experiment [2], 60.7 µM.

In the case of `COc1ccc(C(=O)c2ccc(CN(C)Cc3ccccc3)cc2)cc1`, the results for the IC50 in experiment [1] and in experiment [2] were 1.82 µM and above 100 µM, respectively.

With `CCN(CC)Cc1ccc(C(=O)c2ccc(OC)c(OC)c2)cc1`, the IC50 in experiment [1] was 36.8 µM.

With `COc1ccc(C(=O)c2ccc(CN(C)Cc3cccc([N+](=O)[O-])c3)cc2)cc1OC`, the IC50 in experiment [1] is 4.27 µM; in experiment [2] it was above 100 µM.

The values above are taken from ChEMBL document CHEMBL1138541, “Design, synthesis, and evaluation of benzophenone derivatives as novel acetylcholinesterase inhibitors” (Eur J Med Chem, 2009).
